Where two headings read alike, the source gives them in different places.

In this experiment the target is T1, GCH-1 (Homo sapiens, UniProt P30793).
T1 sequence (P30793 1-250): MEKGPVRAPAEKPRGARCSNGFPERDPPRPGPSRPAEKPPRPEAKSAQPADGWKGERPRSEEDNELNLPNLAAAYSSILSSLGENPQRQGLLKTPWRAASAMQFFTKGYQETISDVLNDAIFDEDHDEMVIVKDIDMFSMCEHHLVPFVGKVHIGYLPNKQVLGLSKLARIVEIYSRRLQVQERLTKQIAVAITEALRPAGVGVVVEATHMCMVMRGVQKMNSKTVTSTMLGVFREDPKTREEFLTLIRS
The experiment can be described thus: LC/MS assay monitoring GTP consumption and neopterin formation by GCH-1. The experiment is classed as biochemical. Particulars: 2 μM GCH-1, 120 μM GTP, 1 hour at 37° C. As for the experimental part:
This method is based on transformations known in the art (see, for example, Xie et al., J. Biol. Chem. 273(33):21091-21098, 1998). The LC-MS assay is carried out by the following steps.
(1) GCH-1 reaction • 2 μM GCH-1, 120 μM GTP, 1 hour incubation at 37° C. (2) Termination of GCH-1 reaction by de-phosphorylation • The reaction is stopped by the addition of excess alkaline phosphatase (2 units/sample) • 1 hour incubation at 37° C. (3) Oxidation of 7,8-dihydroneopterin to get a stabile final product • Oxidation with 0.1 M […] for 1 hour at 37° C. resulting in oxidation of 7,8-dihydroneopterin to neopterin • Termination of the oxidation reaction by addition of ascorbic acid
• Sample analysis using highly specific LC/MS methods to detect guanosine and neopterin in parallel • Data analysis and automated CRC fitting to get IC50 values

Where [1] appears, read: Table 8, LC/MS assay, read-out: IC50.

`Nc1nc2[nH]c(S)nc2c(=O)[nH]1` [8-mercaptoguanine, reference compound]: for the setting “assay validation with known GCH-1 inhibitors, read-out: IC50 [μM] LC/MS assay”, the IC50 was determined as 5 µM.

Consider `COCCn1cnc2c(=O)[nH]c(N)nc21` [Compound (29)], for which, under setting [1], the IC50 is greater than 400 µM.

For the compound `CCCSc1nc2c(=O)[nH]c(N)nc2n1C` [Compound (4)], under setting [1], the IC50 is 85 µM.

With `CCOc1ccccc1NC(=O)CSc1nc2c(O)nc(N)nc2[nH]1` [(56)], the IC50 under setting [1] was found to be 40 µM.

Turning to `Cn1ccc2c(=O)[nH]c(N)nc21` [Compound (38)], the IC50 under setting [1] worked out at 193 µM.

With `Cc1cn(C)c2nc(N)[nH]c(=O)c12` [Compound (40)], the IC50 under setting [1] was greater than 400 µM.

For `Cn1c(=S)[nH]c2nc(N)[nH]c(=O)c21` [Compound (13)], the IC50 under setting [1] is 76 µM.

Turning to `Nc1nc2[nH]ccc2c(=O)[nH]1` [Compound (37)], under setting [1], the IC50 came to 43 µM.

Consider `Nc1nc2[nH]c(SCC3CCOCC3)nc2c(=O)[nH]1` [(9)], for which the IC50 under setting [1] is 39 µM.

`Nc1nc2[nH]c(N)nc2c(=O)[nH]1` [(31)]: under setting [1], the IC50 was 27 µM.

Turning to `CCCSc1nc2c(=O)[nH]c(N)nc2[nH]1` [Compound (3)], the IC50 under setting [1] was 14 µM.

For the compound `COCCSc1nc2c(=O)[nH]c(N)nc2[nH]1` [(6)], under setting [1], the IC50 was 25 µM.

The values above are taken from patent publication US20120252791A1, “Heterocyclic GTP Cyclohydrolase 1 Inhibitors For the Treatment of Pain” (priority 2009, published 2012).
